Source: patent publication US7862642B2, “Extended-release urea-based granular fertilizer” (Georgia-Pacific Chemicals LLC, priority 2006, dated 2011)
Where two headings read alike, the source gives them in different places.

Tested on: Kentucky bluegrass (Poa pratenis L.) turf stand
Conditions: visual scale 1-9 (1=no burn or discoloration, 6=moderate, 9=severe), 3 replications; for Mean Phytotoxicity Score DAT 3: 3 days after treatment; for Mean Phytotoxicity Score DAT 5: 5 days after treatment; for Mean Phytotoxicity Score DAT 13: 13 days after treatment; for Mean Phytotoxicity Score DAT 20: 20 days after treatment
From the text: SGN is defined as the median particle size (in millimeters), i.e., 50% of the particles (by weight) have a particle size above and below this number. The respective fertilizers were applied to a Kentucky bluegrass (Poa pratenis L.) turf stand at the Hancock Turfgrass Research Center on the campus of Michigan State University.
The experimental design was a randomized complete block design with 3 replications. Fertilizer treatments were applied at rates of 1, 2, and 6 lbs. Nitrogen/1000 ft^2. Treatments were applied with a hand shaker container over a 12 ft^2 area. Irrigation (0.25″ water) was not applied until 3 days after treatment application. Visual ratings were conducted on a scale 1-9 with 1=no burn or discoloration, 6=moderate burn or discoloration, and 9=severe burn or discoloration.

NC(N)=O [UREA, urea]
Mean Phytotoxicity Score DAT 3 (1 lb N/1000 ft^2): 1
Mean Phytotoxicity Score DAT 5 (1 lb N/1000 ft^2): 1
Mean Phytotoxicity Score DAT 13 (1 lb N/1000 ft^2): 1
Mean Phytotoxicity Score DAT 20 (1 lb N/1000 ft^2): 1
Mean Phytotoxicity Score DAT 3 (2 lb N/1000 ft^2): 2.3
Mean Phytotoxicity Score DAT 5 (2 lb N/1000 ft^2): 3.7
Mean Phytotoxicity Score DAT 13 (2 lb N/1000 ft^2): 2.3
Mean Phytotoxicity Score DAT 20 (2 lb N/1000 ft^2): 1
Mean Phytotoxicity Score DAT 3 (6 lb N/1000 ft^2): 7.7
Mean Phytotoxicity Score DAT 5 (6 lb N/1000 ft^2): 8.2
Mean Phytotoxicity Score DAT 13 (6 lb N/1000 ft^2): 7.7
Mean Phytotoxicity Score DAT 20 (6 lb N/1000 ft^2): 4.0
